The target in test [1] is T1, 5-hydroxytryptamine receptor 2C (Homo sapiens, UniProt P28335).
T1 sequence (P28335 whole entry): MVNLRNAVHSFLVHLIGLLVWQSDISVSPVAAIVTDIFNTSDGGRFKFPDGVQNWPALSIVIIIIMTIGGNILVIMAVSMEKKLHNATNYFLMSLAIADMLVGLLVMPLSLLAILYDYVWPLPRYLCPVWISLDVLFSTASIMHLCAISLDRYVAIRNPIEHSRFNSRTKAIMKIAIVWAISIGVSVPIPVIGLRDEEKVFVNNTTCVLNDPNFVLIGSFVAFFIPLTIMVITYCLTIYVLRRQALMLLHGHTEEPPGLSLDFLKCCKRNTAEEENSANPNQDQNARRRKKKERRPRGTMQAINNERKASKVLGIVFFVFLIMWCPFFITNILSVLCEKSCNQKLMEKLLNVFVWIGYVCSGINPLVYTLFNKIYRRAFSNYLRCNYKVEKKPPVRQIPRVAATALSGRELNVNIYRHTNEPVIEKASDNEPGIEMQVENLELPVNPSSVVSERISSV
Briefly: DRUGMATRIX: Serotonin (5-Hydroxytryptamine) 5-HT2C radioligand binding (ligand: [3H] Mesulergine). It is filed as cell membranes, CHO-K1, Membrane. The following applies: Not Active = under 50% inhibition at 10 µM; for Ki: read-out: Ki.

For the next test, the target named is D(3) dopamine receptor (Homo sapiens, UniProt P35462). The experiment in a line: DRUGMATRIX: Dopamine D3 radioligand binding (ligand: [3H] Spiperone). It is filed as cell membranes, CHO, Membrane. The following applies: for Ki: read-out: Ki.
The nature of test [2]: DRUGMATRIX: GABAA, Muscimol, Central radioligand binding (ligand: [3H] Muscimol). Format: cell membranes, Rattus norvegicus, Wistar, Brain, Membrane. The following applies: Not Active = under 50% inhibition at 10 µM.
Another test addresses T2, Leukotriene C4 synthase (Cavia porcellus, UniProt A6XA80).
T2 sequence (A6XA80 whole entry): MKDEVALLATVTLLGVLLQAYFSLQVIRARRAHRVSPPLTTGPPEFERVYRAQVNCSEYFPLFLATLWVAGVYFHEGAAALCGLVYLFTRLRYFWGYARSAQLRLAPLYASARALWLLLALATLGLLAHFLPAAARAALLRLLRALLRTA
Format: tissue-based, Lung.

Test [3] can be described thus: DRUGMATRIX: Potassium Channel [KATP] radioligand binding (ligand: [3H] Glyburide). Format: cell membranes, Membrane. The following applies: hit-t15; Not Active = under 50% inhibition at 10 µM.
For test [4], the target named is Mitogen-activated protein kinase 1 (Homo sapiens, UniProt P28482). Briefly: DRUGMATRIX: Protein Serine/Threonine Kinase, ERK2 enzyme inhibition (substrate: Myelin Basic Protein). The following applies: Not Active = under 50% inhibition at 10 µM. More on the design: species or system Escherichia coli.
In the next test the target is T3, Estrogen receptor (Homo sapiens, UniProt P03372). Note: in other assays of this panel Not Active means under 50% inhibition at 10 µM.
T3 sequence (P03372 whole entry): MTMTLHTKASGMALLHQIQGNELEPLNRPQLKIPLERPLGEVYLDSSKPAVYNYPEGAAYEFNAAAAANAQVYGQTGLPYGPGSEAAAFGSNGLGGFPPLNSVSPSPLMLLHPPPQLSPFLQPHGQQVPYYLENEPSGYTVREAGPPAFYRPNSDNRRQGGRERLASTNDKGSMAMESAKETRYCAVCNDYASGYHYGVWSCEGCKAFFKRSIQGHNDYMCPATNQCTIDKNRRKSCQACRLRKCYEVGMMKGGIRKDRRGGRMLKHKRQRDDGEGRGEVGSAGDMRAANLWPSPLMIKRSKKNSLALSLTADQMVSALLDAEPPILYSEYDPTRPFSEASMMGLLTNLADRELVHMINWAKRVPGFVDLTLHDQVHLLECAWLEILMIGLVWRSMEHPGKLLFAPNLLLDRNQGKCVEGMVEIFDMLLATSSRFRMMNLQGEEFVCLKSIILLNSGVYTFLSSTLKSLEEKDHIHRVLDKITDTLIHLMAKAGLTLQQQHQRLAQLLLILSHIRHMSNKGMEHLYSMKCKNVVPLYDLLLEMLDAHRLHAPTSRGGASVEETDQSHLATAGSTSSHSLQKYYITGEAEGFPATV
The following applies: sf9.

Sequence of Mitogen-activated protein kinase 1 (P28482 whole entry): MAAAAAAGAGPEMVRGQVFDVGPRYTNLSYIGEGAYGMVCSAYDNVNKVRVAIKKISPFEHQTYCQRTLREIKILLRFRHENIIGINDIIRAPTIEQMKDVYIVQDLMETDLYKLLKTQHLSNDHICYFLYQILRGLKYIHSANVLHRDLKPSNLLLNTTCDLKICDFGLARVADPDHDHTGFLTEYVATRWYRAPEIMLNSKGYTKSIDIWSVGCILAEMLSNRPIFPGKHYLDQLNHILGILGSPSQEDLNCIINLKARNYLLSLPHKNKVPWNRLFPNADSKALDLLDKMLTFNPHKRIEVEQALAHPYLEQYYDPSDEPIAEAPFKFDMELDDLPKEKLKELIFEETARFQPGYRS
Sequence of D(3) dopamine receptor (P35462 whole entry): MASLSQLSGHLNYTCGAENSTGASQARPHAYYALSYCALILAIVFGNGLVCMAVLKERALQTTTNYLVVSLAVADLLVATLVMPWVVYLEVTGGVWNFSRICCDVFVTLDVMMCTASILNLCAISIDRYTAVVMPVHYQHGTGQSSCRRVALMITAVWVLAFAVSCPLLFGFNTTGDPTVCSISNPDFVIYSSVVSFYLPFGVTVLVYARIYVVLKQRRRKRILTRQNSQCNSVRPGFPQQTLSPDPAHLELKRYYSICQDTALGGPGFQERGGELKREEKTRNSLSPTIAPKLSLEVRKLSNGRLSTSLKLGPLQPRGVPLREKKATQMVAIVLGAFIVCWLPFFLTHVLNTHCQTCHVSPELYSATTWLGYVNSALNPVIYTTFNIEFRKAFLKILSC

The IC50 is the concentration needed to halve the response being measured. A word on the Ki: it is the equilibrium dissociation constant of an inhibitor or competing ligand from its target. As for `CCCCC(=O)N(Cc1ccc(-c2ccccc2-c2nnn[nH]2)cc1)[C@H](C(=O)O)C(C)C`, the IC50 entry (in test [1] (cho-k1); on D(3) dopamine receptor (cho); in test [2]; against Leukotriene C4 synthase; in test [3]; in test [4]) was “Not Active” throughout. Moreover, the IC50 entry against Estrogen receptor is “Not Active”. For the same compound, the inhibition constant (Ki) result in test [2] and in test [3] was “Not Active” each time.
On to `O=C(O)COc1ccc(C(=O)c2cccs2)c(Cl)c1Cl`, for which the IC50 result (in test [1] (cho-k1); at D(3) dopamine receptor (cho); in test [2]; against Leukotriene C4 synthase; in test [3]; in test [4]) was “Not Active” each time. At Estrogen receptor, the half-maximal inhibitory concentration (IC50) result is reported as “Not Active”. For the same compound, the inhibitory constant (Ki) result in test [2] and in test [3] was “Not Active” each time.
In the case of `CN1[C@@H]2CC[C@H]1C[C@@H](OC(c1ccccc1)c1ccccc1)C2` [BENZTROPINE], the half-maximal inhibitory concentration (IC50) in test [1] (read-out: IC50) is 61 nM; at D(3) dopamine receptor (read-out: IC50), 654 nM; against Leukotriene C4 synthase, “Not Active”; in test [4], “Not Active”; against Estrogen receptor, “Not Active”. Moreover, the Ki in test [1] is 32 nM; at D(3) dopamine receptor, 222 nM.
With `C[C@@](Cc1ccc(O)c(O)c1)(NN)C(=O)O.O` [CARBIDOPA], the concentration for half-maximal inhibition (IC50) entry (in test [1] (cho-k1); at D(3) dopamine receptor (cho); in test [2]; against Leukotriene C4 synthase; in test [3]; in test [4]) was “Not Active” throughout. The inhibition constant (Ki) result in test [2] and in test [3] was “Not Active” each time.
Regarding `CN1CCN(C2=Nc3cc(Cl)ccc3Nc3ccccc32)CC1` [CLOZAPINE], the IC50 entry (at Leukotriene C4 synthase; in test [4]; against Estrogen receptor) was “Not Active” in each case.
In the case of `CC(C)NC[C@@H](O)COc1cccc2ccccc12` [DEXPROPRANOLOL], the IC50 result (in test [1] (cho-k1); at D(3) dopamine receptor (cho); against Leukotriene C4 synthase; in test [4]) was “Not Active” each time.
With `CC(C)NC[C@H](O)COc1cccc2ccccc12` [LEVOPROPRANOLOL], the IC50 result (at D(3) dopamine receptor (cho); against Leukotriene C4 synthase; in test [4]) was “Not Active” throughout.
On to `O=C(O)CCCCC1CCSS1` (stereo not drawn) [LIPOIC ACID, ALPHA], for which the IC50 result (in test [1] (cho-k1); on D(3) dopamine receptor (cho); in test [2]; on Leukotriene C4 synthase; in test [3]; in test [4]) was “Not Active” each time. For the same compound, at Estrogen receptor, the half-maximal inhibitory concentration (IC50) result is “Not Active”. Further, the inhibition constant Ki result in test [2] and in test [3] was “Not Active” in each case.
With `CN(C)C(=O)C(CCN1CCC(O)(c2ccc(Cl)cc2)CC1)(c1ccccc1)c1ccccc1` [LOPERAMIDE], the IC50 result in test [1] (cho-k1) is “Not Active”; at D(3) dopamine receptor (read-out: IC50), 1340 nM; at Leukotriene C4 synthase, “Not Active”; in test [4], “Not Active”; at Estrogen receptor it was “Not Active”. For the same compound, the Ki at D(3) dopamine receptor is 454 nM.
For the compound `Clc1ccc(COC(Cn2ccnc2)c2ccc(Cl)cc2Cl)c(Cl)c1` (stereo unspecified) [MICONAZOLE], the IC50 in test [1] (read-out: IC50) is 5310 nM; on D(3) dopamine receptor (read-out: IC50), 3200 nM; against Leukotriene C4 synthase it was “Not Active”; in test [4] it was “Not Active”; against Estrogen receptor it was “Not Active”. Besides, the Ki in test [1] was 2780 nM; on D(3) dopamine receptor, 1090 nM.
Regarding `Oc1ccc2c3c1O[C@H]1[C@@H](O)CC[C@@]4(O)[C@@H](C2)N(CC2CCC2)CC[C@]314` [NALBUPHINE], the IC50 entry (in test [1] (cho-k1); on D(3) dopamine receptor (cho); against Leukotriene C4 synthase; in test [4]; against Estrogen receptor) was “Not Active” throughout.
With `C[C@]12C=CC(=O)C=C1CC[C@@H]1[C@@H]2C(=O)C[C@@]2(C)[C@H]1CC[C@]2(O)C(=O)CO` [PREDNISONE], the 50% inhibitory concentration (IC50) result (in test [1] (cho-k1); at D(3) dopamine receptor (cho); in test [2]; at Leukotriene C4 synthase; in test [3]; in test [4]) was “Not Active” each time. Also, on Estrogen receptor, the IC50 result was “Not Active”. Further, the Ki entry in test [2] and in test [3] was “Not Active” each time.
Consider `OCCOCCN1CCN(C2=Nc3ccccc3Sc3ccccc32)CC1` [QUETIAPINE], for which the 50% inhibitory concentration (IC50) result (against Leukotriene C4 synthase; in test [4]) was “Not Active” each time.
For `COC(=O)[C@H]1[C@H]2C[C@@H]3c4[nH]c5cc(OC)ccc5c4CCN3C[C@H]2C[C@@H](OC(=O)c2cc(OC)c(OC)c(OC)c2)[C@@H]1OC` [RESERPINE], the 50% inhibitory concentration (IC50) result (in test [1] (cho-k1); on D(3) dopamine receptor (cho); in test [2]; against Leukotriene C4 synthase; in test [3]; in test [4]) was “Not Active” throughout. The Ki result in test [2] and in test [3] was “Not Active” throughout.
With `O=C(O)c1ccccc1O` [SALICYLIC ACID], the IC50 result (in test [1] (cho-k1); on D(3) dopamine receptor (cho); in test [2]; at Leukotriene C4 synthase; in test [3]; in test [4]) was “Not Active” in each case. The IC50 entry at Estrogen receptor is reported as “Not Active”. The Ki entry in test [2] and in test [3] was “Not Active” throughout.
Consider `C[S+]([O-])c1ccc(-c2nc(-c3ccncc3)c(-c3ccc(F)cc3)[nH]2)cc1` (stereo unspecified) [SB-203580], for which the half-inhibitory concentration (IC50) entry (in test [1] (cho-k1); at D(3) dopamine receptor (cho); on Leukotriene C4 synthase; against Estrogen receptor) was “Not Active” each time.
`CC1CCC(NC(=O)N(CCCl)N=O)CC1` (stereo unspecified) [SEMUSTINE]: the 50% inhibitory concentration (IC50) result (in test [1] (cho-k1); at D(3) dopamine receptor (cho); in test [2]; against Leukotriene C4 synthase; in test [3]; in test [4]) was “Not Active” in each case. In addition, the IC50 result against Estrogen receptor was “Not Active”. Also, the inhibition constant (Ki) result in test [2] and in test [3] was “Not Active” throughout.
In the case of `O=C1C[C@@H]2OCC=C3CN4CC[C@]56c7ccccc7N1[C@H]5[C@H]2[C@H]3C[C@H]46` [STRYCHNINE], the half-maximal inhibitory concentration (IC50) result (in test [1] (cho-k1); at D(3) dopamine receptor (cho); in test [2]; on Leukotriene C4 synthase; in test [3]; in test [4]) was “Not Active” in each case. Also, the Ki result in test [2] and in test [3] was “Not Active” each time.
In the case of `O=c1[nH]c(=O)n(C2CCCO2)cc1F` (stereo unspecified) [TEGAFUR], the concentration for half-maximal inhibition (IC50) result (in test [1] (cho-k1); at D(3) dopamine receptor (cho); in test [2]; at Leukotriene C4 synthase; in test [3]; in test [4]) was “Not Active” each time. For the same compound, the Ki result in test [2] and in test [3] was “Not Active” in each case.
As to `CC(=N)S` [THIOACETAMIDE], the concentration for half-maximal inhibition (IC50) result (in test [1] (cho-k1); on D(3) dopamine receptor (cho); in test [2]; against Leukotriene C4 synthase; in test [3]; in test [4]) was “Not Active” each time. The Ki entry in test [2] and in test [3] was “Not Active” throughout.
Turning to `CC(=O)OCC(COC(C)=O)OC(C)=O` [TRIACETIN], the IC50 entry (in test [1] (cho-k1); on D(3) dopamine receptor (cho); in test [2]; on Leukotriene C4 synthase; in test [3]; in test [4]) was “Not Active” each time. Also, the Ki result in test [2] and in test [3] was “Not Active” each time.
For `CN1CCN(CCCN2c3ccccc3Sc3ccc(C(F)(F)F)cc32)CC1` [TRIFLUOPERAZINE], the concentration for half-maximal inhibition (IC50) entry (in test [1] (cho-k1); at D(3) dopamine receptor (cho); in test [2]; at Leukotriene C4 synthase; in test [3]; in test [4]) was “Not Active” in each case. The inhibition constant (Ki) result in test [2] and in test [3] was “Not Active” throughout.

(Values after ChEMBL document CHEMBL1909046, “DrugMatrix in vitro pharmacology data”.)
